Results as given in US20200277378A1, “COMBINATION THERAPIES” (Novartis AG, priority 2017, published 2020).
Counter-ions that a name gives are not always drawn.

How the values were obtained:
[1] = Clinical study of PDR001 in combination with a CXCR2 inhibitor (DLT evaluation); type: in vivo, human; conditions: PDR001 400 mg Q4W + CXCR2 inhibitor 75 mg BID 2 weeks on/2 week off; seven patients dosed, two completed 56-day DLT period
Procedure: The primary objective of this study is to combine the PDR001 checkpoint inhibitor with the CXCR2 inhibitor, 6-chloro-3-((3,4-dioxo-2-(pentan-3-ylamino)cyclobut-1-en-1-yl)amino)-2-hydroxy-N-methoxy-N-methylbenzenesulfonamide choline salt, to identify the doses and schedule for combination therapy and to preliminarily assess the safety, tolerability, pharmacological and clinical activity of these combinations.
Patients are dosed on a flat scale and not by body weight or body surface area. Dosing of the CXCR2 inhibitor occurs immediately after completion of the PDR001 infusion during clinic visits. Patients are treated with 400 mg PDR001 every four weeks (i.e., Q4W). The CXCR2 inhibitor is administered orally twice daily, approximately 12 hours apart, with approximately 240 mL of water on an empty stomach at least 1 hour before or 2 hours after a meal, at about the same time every day. Patients are instructed not to chew the medication but to swallow it whole. The CXCR2 inhibitor is administered at a starting dose of 75 mg BID, two weeks on/two weeks off in each 28-day cycle or one week on/two weeks off in each 21-day cycle. If tolerated, the dose may be escalated to 150 mg BID two weeks on/two weeks off or one week on/two weeks off. […] Multiple dose levels below the MTD may be evaluated simultaneously in order to obtain PK and PD data across a range of doses and to establish the MTD/RDE. […]

[2] = system: PBMCs from whole blood activated by SEB; type: cell-based, human
MC38 tumors = assay: PD-L1 expression on tumor-infiltrating dendritic cells and macrophages in MC38 colon carcinoma mouse model; type: in vivo, C57BL/6 mice; conditions: combination BLZ945 200 mg/kg p.o. weekly + 5D12 10 mg/kg i.p. biweekly, day 9
Procedure: C57BL/6 mice (Charles River Laboratories) were implanted with 1×10^6 MC38 cells subcutaneously. When tumors were 70-100 mm3 in size, mice were randomized into groups of 8 animals and treated with an anti-TIM-3 antibody (5D12), a CSF-1R binding agent (BLZ945), both 5D12 antibody and BLZ945, or with vehicle control. Mice were dosed orally (p.o.) or intraperitoneally (i.p.). The groups of mice were dosed as follows:
Group 1) Vehicle p.o+antibody Isotype (mIgG1) i.p; Group 2) BLZ945 200 mg/kg p.o+antibody isotype (mIgG1) i.p; Group 3) Vehicle p.o+5D12 (mouse anti-TIM-3) 10 mg/kg i.p; Group 4) BLZ945 200 mg/kg p.o+5D12 (mouse anti-TIM-3) 10 mg/kg i.p. BLZ945 was dosed weekly and 5D12 was dosed biweekly.
At Day 9 post-treatment initiation, mice were sacrificed. Tumors were harvested and processed into single cell suspensions for analysis by flow cytometry. The single cell suspension was generated using a combination of dispase, collagenase and DNase 1. The tumor infiltrating immune cells were analyzed by flow cytometry. Samples were acquired on a BD Fortessa and data was analyzed using Flowjo. Populations were defined as follows: dendritic cells (CD45+CD11b+Ly6C-MHC-II+Ly6G-F480−) and macrophages (CD45+CD11b+Ly6C-MHC-II+Ly6G-F480+). Levels of PD-L1 expression were analyzed as the mean fluorescence intensity of signal in the PD-L1 channel. […]

human CXCR2 receptor = human CXCR2 receptor (Homo sapiens, UniProt P25025); conditions: membranes from CHO cells expressing human CXCR2 receptor
Chain of human CXCR2 receptor (P25025 whole entry): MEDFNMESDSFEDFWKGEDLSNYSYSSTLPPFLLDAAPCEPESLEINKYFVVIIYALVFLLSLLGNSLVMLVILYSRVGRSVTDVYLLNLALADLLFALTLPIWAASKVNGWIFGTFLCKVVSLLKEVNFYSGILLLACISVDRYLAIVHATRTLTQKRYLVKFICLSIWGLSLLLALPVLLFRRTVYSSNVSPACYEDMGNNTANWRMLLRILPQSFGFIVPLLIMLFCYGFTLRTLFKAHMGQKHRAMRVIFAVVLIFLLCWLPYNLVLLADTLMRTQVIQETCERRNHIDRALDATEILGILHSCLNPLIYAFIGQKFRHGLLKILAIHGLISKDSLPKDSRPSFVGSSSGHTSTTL

[3] = system: neutrophils in whole human blood; assay: rhGROα-induced neutrophil shape change in whole human blood; type: cell-based
neutrophils = assay: rhGROα-induced neutrophil migration; type: cell-based

PDR001: anti-PD-1 antibody molecule (PD-1 inhibitor, Novartis), also known as Spartalizumab
dose limiting toxicity (DLT) [1]: no patient has developed a DLT
EC50 in SEB activation assay [2]: 0.5 µg/mL
EC50 ([2]; read-out: EC50 in SEB activation assay): 3.68 nM

CNC(=O)c1cc(Oc2ccc3nc(N[C@@H]4CCCC[C@H]4O)sc3c2)ccn1 [BLZ945, 4-((2-(((1R,2R)-2-hydroxycyclohexyl)amino)benzo[d]thiazol-6-yl)oxy)-N-methylpicolinamide]
PD-L1 expression (mean fluorescence intensity) in F480+ and F480- tumor-infiltrating cells (MC38 tumors): enhancement

CCC(CC)Nc1c(Nc2ccc(Cl)c(S(=O)(=O)N(C)OC)c2O)c(=O)c1=O [6-chloro-3-((3,4-dioxo-2-(pentan-3-ylamino)cyclobut-1-en-1-yl)amino)-2-hydroxy-N-methoxy-N-methylbenzenesulfonamide choline salt]
dose limiting toxicity (DLT) [1]: no patient has developed a DLT
GROα and IL-8-stimulated [35S]GTPγS binding (human CXCR2 receptor): inhibits
neutrophil shape change induced by rhGROα [3]: dose-dependent inhibition
rhGROα-induced neutrophil migration (neutrophils): dose-dependent inhibition

B1: LAG525: LAG-3 inhibitor (Novartis), anti-LAG-3 antibody molecule (antibody, chains of the INN, looked up, V domains shown)
VH: QVQLVQSGAEVKKPGASVKVSCKASGFTLTNYGMNWVRQARGQRLEWIGWINTDTGEPTYADDFKGRFVFSLDTSVSTAYLQISSLKAEDTAVYYCARNPPYYYGTNNAEAMDYWGQGTTVTVSS
VL: DIQMTQSPSSLSASVGDRVTITCSSSQDISNYLNWYLQKPGQSPQLLIYYTSTLHLGVPSRFSGSGSGTEFTLTISSLQPDDFATYYCQQYYNLPWTFGQGTKVEIK
IL-2 production in the SEB assay on titration ([2]; increasing doses of LAG525 with fixed 0.5 ug/ml each of PDR001 and GWN323): dose-responsive production of IL-2
